EP0641564A1, “OPTICALLY ACTIVE CONDENSED PYRAZOLE COMPOUND FOR USE IN TREATING THROMBOCYTOPENIA AND ERYTHROPENIA” (YOSHITOMI PHARMACEUTICAL INDUSTRIES, LTD., priority 1992, dated 1993)

Tests used:
[1] = test system: mice administered with cyclophosphamide; assay: Stimulating action on recovery of leukocyte count (cyclophosphamide-treated mice); assay type: in vivo, ICR mice; settings: for Leukocyte count: cyclophosphamide 200 mg/kg i.p., day 4; for Increase in leukocyte count: relative ratio to count of mice administered with cyclophosphamide (=100)
Description: Experimental Example 7 : Stimulating action on recovery of leukocyte count
ICR mice (20-25 g body weight) were intraperitoneally administered with 200 mg/kg of cyclophosphamide and the compound of the present invention was intravenously administered for 3 days starting from the next day of the administration. On day 4 after the cyclophosphamide administration, the blood of the ICR mice was taken and leukocyte count was measured using Coulter counter. The relative ratio of the count to the peripheral leukocyte count of the mice administered with cyclophosphamide was calculated and expressed in percentage.

[2] = test system: mice irradiated with X-rays; assay: Promoting action on recovery of erythrocyte count in mice irradiated with X-rays (preventive effects); assay type: in vivo, BALB/c mice; settings: mean±SD
Description: Experimental Example 3 : Promoting action on recovery of erythrocyte count in mice irradiated with X-rays (preventive effects)
BALB/c mice (4-5 weeks old) were exposed to 4.0 Gy total body irradiation. Compound A was intravenously administered for 3 consecutive days starting from 3 days before and up to the previous day of the irradiation. On day 19 and day 22 after the X-ray irradiation, blood was taken from orbital vein plexus of mice and erythrocyte count was measured using an automatic cell counter. The experiment was done with 8 mice per group and the results are shown as mean value±standard deviation.

[3] = test system: mice transplanted with bone marrow; assay: Promoting action on recovery of platelet count in mice transplanted with bone marrow; assay type: in vivo, ICR mice; settings: day 11; for Platelet count: X-irradiation (8.0 Gy)+bone marrow transplantation; for Increase in platelet count: difference between untreated group and bone marrow transplanted group = 100%
Text: Experimental Example 1 : Promoting action on recovery of platelet count in mice transplanted with bone marrow
ICR mice (6-8 weeks old) were exposed to 8.0 Gy total body irradiation and 10⁷ bone marrow cells from the mice of the same species were transplanted to the mice. Then, Compound A or Compound B was intravenously administered for 9 consecutive days starting from the next day of the bone marrow transplantation. On day 11 after the bone marrow transplantation, heparinized blood was taken from the abdominal aorta of mice and platelet count was measured using an automatic cell counter. The experiment was done with 5 mice per group. The difference in platelet count between an untreated group and the bone marrow transplanted group was taken as 100%, based on which increase in the platelet count was calculated.

[4] = test system: rats administered with anti-tumor drug; assay: Promoting action on recovery of decreased platelet count in rats administered with anti-tumor drug (nimustine hydrochloride); assay type: in vivo, SD rats; settings: 1.0 mg/kg i.v. on day 8, 9, 10 and 14 after initial nimustine hydrochloride
Description: Experimental Example 2 : Promoting action on recovery of decreased platelet count in rats administered with anti-tumor drug
An anti-tumor drug, nimustine hydrochloride, (30 mg/kg) was intravenously administered to SD rats (6 weeks old) and 15 mg/kg thereof was intravenously administered the next day. Compound A was intravenously administered for 4 days on day 8, day 9, day 10 and day 14 after the initial administration of nimustine hydrochloride. On certain days after the administration, heparinized blood was taken from the rat tail vein and platelet count was measured using an automatic cell counter. The experiment was done with 4-6 rats per group.

[5] = test system: mice irradiated with X-rays; assay: Promoting action on recovery of erythrocyte count in mice irradiated with X-rays (therapeutic effects); assay type: in vivo, BALB/c mice; settings: day 14, mean±SD
Description: Experimental Example 4 : Promoting action on recovery of erythrocyte count in mice irradiated with X-rays (therapeutic effects)
BALB/c mice (4-5 weeks old) were exposed to 4.0 Gy total body irradiation. Compound A was intravenously administered for 9 consecutive days starting from the next day of the X-ray irradiation to 9 days thereafter. On day 14 after the X-ray irradiation, blood was taken from orbital vein plexus of mice and erythrocyte count was measured using an automatic cell counter. The experiment was done with 6 mice per group and the results are shown as mean value±standard deviation.

rats = assay: Acute toxicity test; assay type: in vivo; settings: orally administered to rats, dose of 1000 mg/kg
Description: Experimental Example 9 : Acute toxicity test
Compound A, Compound B or Compound C was orally administered to rats. As a result, no death case was found at a dose of 1000 mg/kg.

[6] = test system: mice transplanted with bone marrow; assay: Promoting action on recovery of erythrocyte count in mice transplanted with bone marrow; assay type: in vivo, ICR mice; settings: X-irradiation (8.0 Gy)+bone marrow transplantation, day 11
Text: Experimental Example 5 : Promoting action on recovery of erythrocyte count in mice transplanted with bone marrow
ICR mice (6-8 weeks old) were exposed to 8.0 Gy total body irradiation and 10⁷ bone marrow cells from the mice of the same species were transplanted to the mice. Then, Compound A was intravenously administered for 9 consecutive days starting from the next day of the bone marrow transplantation. On day 11 after the bone marrow transplantation, heparinized blood was taken from the abdominal aorta of mice and erythrocyte count was measured using an automatic cell counter. The experiment was done with 5 mice per group.

[7] = test system: mice transplanted with bone marrow; assay: Promoting action on recovery of leukocyte count in mice transplanted with bone marrow; assay type: in vivo, ICR mice; settings: for Leukocyte count: X-irradiation (8.0 Gy)+bone marrow transplantation (day 0, 7, 14); for Leukocyte count / Increase in leukocyte count: day 38; for Increase in leukocyte count: relative ratio of increased count to decreased count of bone marrow transplanted mice
Description: Experimental Example 8 : Promoting action on recovery of leukocyte count in mice transplanted with bone marrow
ICR mice (6-8 weeks old) were exposed to 8.0 Gy total body irradiation and 10⁷ bone marrow cells from the mice of the same species were transplanted to the mice. The bone marrow transplantation was performed three times on day 0, day 7 and day 14. Then, the compound of the present invention was intravenously administered for 14 consecutive days starting from the next day of the first bone marrow transplantation. On day 38 after the first bone marrow transplantation, blood was taken and leukocyte count was measured using an automatic cell counter. The experiment was done with 5 mice per group. The relative ratio of the increased leukocyte count to the decreased leukocyte count of the mice transplanted with bone marrow was calculated and expressed in percentage.

[8] = 0.01 mg/kg i.v. for 3 consecutive days before 4.0 Gy irradiation
[9] = 0.1 mg/kg i.v. for 3 consecutive days before 4.0 Gy irradiation
[10] = 1 mg/kg i.v. for 3 consecutive days before 4.0 Gy irradiation
[11] = 0.01 mg/kg i.v. for 14 consecutive days
[12] = 0.1 mg/kg i.v. for 14 consecutive days

## CC(CN(C)C)Oc1ccc(-c2nn(CC(=O)O)c3ncccc23)cc1 (stereo not drawn) [Comp. A, 3-[4-(2-dimethylamino-1-methylethoxy)phenyl]-1H-pyrazolo[3,4-b]pyridine-1-acetic acid]
[1]; 0.01 mg/kg i.v. for 3 days
  Leukocyte count: 18±8 10²/mm³
[1]; 0.01 mg/kg i.v.
  Increase in leukocyte count: 164%
[1]; 0.1 mg/kg i.v. for 3 days
  Leukocyte count: 25±6 10²/mm³
[1]; 0.1 mg/kg i.v.
  Increase in leukocyte count: 227%
[1]; 1 mg/kg i.v. for 3 days
  Leukocyte count: 30±6 10²/mm³
[1]; 1 mg/kg i.v.
  Increase in leukocyte count: 273%
[2]; [8]
  Erythrocyte count day 19: 835±102 10⁴/mm³
  Erythrocyte count day 22: 904±45 10⁴/mm³
[2]; [9]
  Erythrocyte count day 19: 837±118 10⁴/mm³
  Erythrocyte count day 22: 916±86 10⁴/mm³
[2]; [10]
  Erythrocyte count day 19: 856±118 10⁴/mm³
  Erythrocyte count day 22: 932±86 10⁴/mm³
[3]; Table 1, 0.01 mg/kg i.v. for 9 consecutive days
  Platelet count: 27.4±9.6 10⁴/mm³
[3]; Table 1, 0.01 mg/kg i.v.
  Increase in platelet count: 30%
[3]; Table 1, 0.03 mg/kg i.v. for 9 consecutive days
  Platelet count: 31.4±11.4 10⁴/mm³
[3]; Table 1, 0.03 mg/kg i.v.
  Increase in platelet count: 41%
[3]; Table 1, 0.1 mg/kg i.v. for 9 consecutive days
  Platelet count: 42.3±10.6 10⁴/mm³
[3]; Table 1, 0.1 mg/kg i.v.
  Increase in platelet count: 71%
[3]; Table 1, 0.3 mg/kg i.v. for 9 consecutive days
  Platelet count: 49.8±9.7 10⁴/mm³
[3]; Table 1, 0.3 mg/kg i.v.
  Increase in platelet count: 91%
[4]; day 25
  Platelet count day 25: 17.7±21.8 10⁴/mm³
[4]; day 44
  Platelet count day 44: 57.3±20.2 10⁴/mm³
[5]; 0.01 mg/kg i.v. for 9 consecutive days after 4.0 Gy irradiation
  Erythrocyte count: 535±98 10⁴/mm³
[5]; 0.1 mg/kg i.v. for 9 consecutive days after 4.0 Gy irradiation
  Erythrocyte count: 686±72 10⁴/mm³
rats
  death cases (acute toxicity): no death case
[6]; 0.01 mg/kg i.v. for 9 consecutive days
  Erythrocyte count: 699±51 10⁴/mm³
[6]; 0.1 mg/kg i.v. for 9 consecutive days
  Erythrocyte count: 714±56 10⁴/mm³
[7]; [11]
  Leukocyte count: 65±7 10²/mm³
[7]; 0.01 mg/kg i.v.
  Increase in leukocyte count: 30%
[7]; [12]
  Leukocyte count: 75±5 10²/mm³
[7]; 0.1 mg/kg i.v.
  Increase in leukocyte count: 46%
[7]; 1 mg/kg i.v. for 14 consecutive days
  Leukocyte count: 81±4 10²/mm³
[7]; 1 mg/kg i.v.
  Increase in leukocyte count: 56%

## C[C@@H](CN(C)C)Oc1ccc(-c2nn(CC(=O)O)c3ncccc23)cc1 [Comp. B, (S)-3-[4-(2-dimethylamino-1-methylethoxy)phenyl]-1H-pyrazolo[3,4-b]pyridine-1-acetic acid]
[1]; 0.003 mg/kg i.v. for 3 days
  Leukocyte count: 19±5 10²/mm³
[1]; 0.003 mg/kg i.v.
  Increase in leukocyte count: 173%
[1]; 0.03 mg/kg i.v. for 3 days
  Leukocyte count: 27±5 10²/mm³
[1]; 0.03 mg/kg i.v.
  Increase in leukocyte count: 245%
[1]; 0.3 mg/kg i.v. for 3 days
  Leukocyte count: 30±6 10²/mm³
[1]; 0.3 mg/kg i.v.
  Increase in leukocyte count: 273%
[1]; cyclophosphamide-pretreated mice, comparison from Table 7
  strength of leukocyte count recovery effect relative to Compound A: about three times stronger effect
[3]; Table 2, 0.01 mg/kg i.v. for 9 consecutive days
  Platelet count: 45.9±6.7 10⁴/mm³
[3]; Table 2, 0.01 mg/kg i.v.
  Increase in platelet count: 65%
[3]; Table 2, 0.03 mg/kg i.v. for 9 consecutive days
  Platelet count: 54.8±13.6 10⁴/mm³
[3]; Table 2, 0.03 mg/kg i.v.
  Increase in platelet count: 81%
rats
  death cases (acute toxicity): no death case
[7]; [11]
  Leukocyte count: 76±10 10²/mm³
[7]; 0.01 mg/kg i.v.
  Increase in leukocyte count: 48%
[7]; [12]
  Leukocyte count: 89±6 10²/mm³
[7]; 0.1 mg/kg i.v.
  Increase in leukocyte count: 69%
[7]; bone marrow transplanted mice, comparison from Table 8
  strength of leukocyte count recovery effect relative to Compound A: about ten times stronger effect

## CCOC(=O)Cn1nc(-c2ccc(O[C@@H](C)CN(C)C)cc2)c2cccnc21.Cl [Compound C, ethyl (S)-3-[4-(2-dimethylamino-1-methylethoxy)phenyl]-1H-pyrazolo[3,4-b]pyridine-1-acetate hydrochloride]
rats
  death cases (acute toxicity): no death case
